Results reported in US20070021434A1, “NON-NUCLEOSIDE ANTI-HEPACIVIRUS AGENTS AND USES THEREOF” (Migenix Inc., priority 2005, published 2007).
Where two headings read alike, the source gives them in different places.

Tests used:
HCV RdRp (NS5B) = HCV RdRp (NS5B) (UniProt P26663); assay type: biochemical, hepatitis C virus
[1] = tested on: Huh-7 cells, genotype 1b HCV replicon; experiment: Inhibition of HCV replication in cell culture, genotype 1b replicon; assay type: cell-based, hepatitis C virus; settings: for EC50: Huh-7, genotype 1b replicon, intracellular HCV RNA 24 h after 3 daily doses; for Selectivity Index (CC50/EC50): genotype 1b replicon, CC50 by neutral red uptake
Procedure: (§1) Test compounds were solubilized at 30 mM in 100% tissue culture grade DMSO (Sigma, Inc.). Aliquots of test compounds sufficient for one daily treatment were made in individual tubes and all material was stored at −20° C. On each day of treatment, daily aliquots of the test compounds were suspended in culture medium at room temperature and immediately added to the cell cultures. Compounds were added to dividing cultures once daily for three days at concentrations ranging from about 30 μM to about 0.0003 μM. Media was changed with each addition of compound. The assays were started when cell cultures were at about 30-50% confluence, and the cells reached confluence during the last day of treatment. The assays included untreated control cultures (six total), and triplicate cultures treated with α-interferon and ribavirin as positive antiviral and toxicity controls.
(§2) Intracellular HCV RNA levels and cytotoxicity were assessed in triplicate 24 hours after the last compound dose.

[2] = tested on: Huh-7 cells, sub-genomic genotype 1a HCV replicon H/SG-Neo; experiment: Inhibition of HCV replication in cell culture, genotype 1a replicon; assay type: cell-based, hepatitis C virus; settings: for EC50: Huh-7, genotype 1a replicon, intracellular HCV RNA 24 h after 3 daily doses; for Selectivity Index (CC50/EC50): genotype 1a replicon, CC50 by neutral red uptake
Procedure: as §1, §2

[3] = Hepatitis C virus, Huh-7, 24 h, read-out: EC50

HCV RdRp (NS5B), sequence (P26663 whole entry, looked up): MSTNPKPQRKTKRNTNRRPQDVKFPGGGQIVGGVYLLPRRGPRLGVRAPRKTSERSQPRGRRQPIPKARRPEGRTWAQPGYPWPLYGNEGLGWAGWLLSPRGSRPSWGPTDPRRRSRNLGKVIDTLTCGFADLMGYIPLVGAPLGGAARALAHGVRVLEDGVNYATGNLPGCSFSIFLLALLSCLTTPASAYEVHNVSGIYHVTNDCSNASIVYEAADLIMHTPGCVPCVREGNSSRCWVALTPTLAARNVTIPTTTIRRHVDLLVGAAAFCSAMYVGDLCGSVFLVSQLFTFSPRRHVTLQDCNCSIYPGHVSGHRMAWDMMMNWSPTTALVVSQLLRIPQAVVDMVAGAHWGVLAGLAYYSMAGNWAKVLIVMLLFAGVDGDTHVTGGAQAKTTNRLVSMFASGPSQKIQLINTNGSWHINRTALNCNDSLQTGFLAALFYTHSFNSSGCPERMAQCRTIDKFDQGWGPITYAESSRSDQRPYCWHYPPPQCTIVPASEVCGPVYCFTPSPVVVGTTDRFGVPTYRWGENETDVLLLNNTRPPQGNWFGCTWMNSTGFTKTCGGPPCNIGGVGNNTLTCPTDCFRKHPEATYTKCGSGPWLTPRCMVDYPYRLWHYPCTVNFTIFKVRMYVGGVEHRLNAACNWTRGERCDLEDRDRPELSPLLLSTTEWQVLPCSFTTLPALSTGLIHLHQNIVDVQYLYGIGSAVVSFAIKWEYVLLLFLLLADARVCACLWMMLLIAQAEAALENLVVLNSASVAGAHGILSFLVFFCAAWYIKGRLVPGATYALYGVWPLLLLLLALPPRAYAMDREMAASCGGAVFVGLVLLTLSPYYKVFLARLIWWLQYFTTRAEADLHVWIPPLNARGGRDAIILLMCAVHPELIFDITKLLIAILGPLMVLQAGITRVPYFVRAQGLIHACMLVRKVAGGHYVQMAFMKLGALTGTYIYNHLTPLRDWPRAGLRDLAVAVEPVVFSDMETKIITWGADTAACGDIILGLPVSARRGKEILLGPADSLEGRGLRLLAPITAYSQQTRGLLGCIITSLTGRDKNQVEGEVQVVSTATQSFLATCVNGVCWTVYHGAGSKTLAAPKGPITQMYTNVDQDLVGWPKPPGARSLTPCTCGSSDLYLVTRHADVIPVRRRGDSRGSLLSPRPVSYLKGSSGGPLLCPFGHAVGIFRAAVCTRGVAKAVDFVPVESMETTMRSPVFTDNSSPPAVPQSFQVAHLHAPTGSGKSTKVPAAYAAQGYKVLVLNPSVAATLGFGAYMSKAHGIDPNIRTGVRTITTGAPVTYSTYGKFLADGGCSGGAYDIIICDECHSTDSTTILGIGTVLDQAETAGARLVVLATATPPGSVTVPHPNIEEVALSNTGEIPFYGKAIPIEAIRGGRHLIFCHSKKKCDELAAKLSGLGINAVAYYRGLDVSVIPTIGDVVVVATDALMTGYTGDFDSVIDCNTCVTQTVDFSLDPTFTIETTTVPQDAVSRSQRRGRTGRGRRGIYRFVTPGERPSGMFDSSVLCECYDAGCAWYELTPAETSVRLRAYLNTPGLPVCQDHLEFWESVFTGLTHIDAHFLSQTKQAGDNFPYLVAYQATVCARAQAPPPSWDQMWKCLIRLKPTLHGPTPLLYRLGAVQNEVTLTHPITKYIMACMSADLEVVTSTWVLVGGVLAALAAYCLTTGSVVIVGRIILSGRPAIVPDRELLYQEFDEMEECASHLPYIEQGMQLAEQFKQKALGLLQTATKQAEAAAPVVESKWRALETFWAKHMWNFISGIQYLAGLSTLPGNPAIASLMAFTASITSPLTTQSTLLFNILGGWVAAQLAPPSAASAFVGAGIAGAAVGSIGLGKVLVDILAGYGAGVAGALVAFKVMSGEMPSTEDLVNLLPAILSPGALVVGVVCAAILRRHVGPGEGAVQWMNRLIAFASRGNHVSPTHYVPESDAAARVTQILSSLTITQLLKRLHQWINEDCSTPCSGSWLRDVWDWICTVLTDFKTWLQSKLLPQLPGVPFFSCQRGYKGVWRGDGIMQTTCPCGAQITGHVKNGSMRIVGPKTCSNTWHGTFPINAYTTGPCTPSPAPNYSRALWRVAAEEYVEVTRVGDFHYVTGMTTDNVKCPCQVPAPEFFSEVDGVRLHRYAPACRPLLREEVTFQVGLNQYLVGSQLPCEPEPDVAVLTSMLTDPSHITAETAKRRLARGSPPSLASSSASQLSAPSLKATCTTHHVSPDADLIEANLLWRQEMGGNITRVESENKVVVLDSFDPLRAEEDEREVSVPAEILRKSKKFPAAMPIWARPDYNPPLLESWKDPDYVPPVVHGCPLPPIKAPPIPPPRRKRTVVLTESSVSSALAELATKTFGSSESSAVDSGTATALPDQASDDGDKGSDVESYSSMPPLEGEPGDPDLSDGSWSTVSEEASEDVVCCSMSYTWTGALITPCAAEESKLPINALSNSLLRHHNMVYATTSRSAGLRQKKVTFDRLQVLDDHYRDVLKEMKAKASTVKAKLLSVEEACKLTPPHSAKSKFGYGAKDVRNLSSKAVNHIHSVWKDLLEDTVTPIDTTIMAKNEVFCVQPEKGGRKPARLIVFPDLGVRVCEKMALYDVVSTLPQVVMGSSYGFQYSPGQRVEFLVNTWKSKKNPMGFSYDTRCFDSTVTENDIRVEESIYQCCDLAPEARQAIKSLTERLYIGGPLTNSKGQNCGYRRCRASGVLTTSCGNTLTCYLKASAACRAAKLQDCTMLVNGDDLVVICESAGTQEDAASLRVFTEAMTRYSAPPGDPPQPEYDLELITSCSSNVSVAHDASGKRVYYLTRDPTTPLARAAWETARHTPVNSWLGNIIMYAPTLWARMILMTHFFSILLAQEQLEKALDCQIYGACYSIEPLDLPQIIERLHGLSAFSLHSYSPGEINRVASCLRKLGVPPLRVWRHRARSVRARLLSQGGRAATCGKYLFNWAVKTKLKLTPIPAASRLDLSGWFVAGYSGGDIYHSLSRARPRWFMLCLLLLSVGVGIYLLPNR

Structure (SMILES)	IC50 (HCV RdRp (NS5B))	EC50 [1, 3]	Selectivity Index (CC50/EC50) [1]	EC50 ([2]; Hepatitis C virus)	Selectivity Index (CC50/EC50) [2]	EC50 [1]	EC50 ([1]; read-out: EC50)	EC50 [2]	EC50 ([1]; Hepatitis C virus, Huh-7, 24 h)
Cc1cc2cc(NC(=O)[C@H](CCNC(=O)CN)NC(=O)Nc3ccc4c(c3)Cc3ccccc3-4)ccc2[nH]1 [Compound 240, (S)-4-(2-AMINO-ACETYLAMINO)-2-[3-(9H-FLUOREN-2-YL)-UREIDO]-N-(2-METHYL-1H-INDOL-5-YL)-BUTYRAMIDE]	10 to 50 µM	> 2 µM	<20	–	–	–	–	–	–
Cc1ccc(NC(=O)C(Cc2ccc(CN)cc2)NC(=O)Nc2ccc(OCc3ccccc3)cc2)cc1 [Compound 146, (S)-3-(4-AMINOMETHYL-PHENYL)-2-[3-(4-BENZYLOXY-PHENYL)-UREIDO]-N-P-TOLYL-PROPIONAMIDE]	< 10 µM	< 0.5 µM	20 to 100	–	–	–	–	–	–
NCCCC[C@H](NC(=O)Nc1ccc(-c2ccccc2)cc1)C(=O)Nc1ccc(CN(C(=O)c2ccco2)C2CCCCC2)cc1 [Compound 26, (S)-FURAN-2-CARBOXYLIC ACID {4-[6-AMINO-2-(3-BIPHENYL-4-YL-UREIDO)-HEXANOYLAMINO]-BENZYL}-CYCLOHEXYL-AMIDE]	< 10 µM	> 2 µM	<20	–	–	–	–	–	–
Cc1cc2cc(NC(=O)[C@H](CCCNC(=O)CN)NC(=O)Nc3ccc4c(c3)Cc3ccccc3-4)ccc2[nH]1 [Compound 297, (S)-5-(2-AMINO-ACETYLAMINO)-2-[3-(9H-FLUOREN-2-YL)-UREIDO]-PENTANOIC ACID (2-METHYL-1H-INDOL-5-YL)-AMIDE]	< 10 µM	< 0.5 µM	>100	< 0.5 µM	>100	–	–	–	–
Cc1ccc(NC(=O)[C@@H](CCCCN)NC(=O)Nc2ccc3c(c2)Cc2ccccc2-3)cc1 [Compound 173, (R)-6-AMINO-2-[3-(9H-FLUOREN-2-YL)-UREIDO]-HEXANOIC ACID P-TOLYLAMIDE]	< 10 µM	–	<20	–	–	2 to 0.5 μM	–	–	–
Cc1ccc(NC(=O)[C@H](CCCCN)NC(=O)CNc2ccccc2Oc2ccccc2)cc1 [Compound 366, (S)-6-AMINO-2-[2-(2-PHENOXY-PHENYLAMINO)-ACETYLAMINO]-HEXANOIC ACID P-TOLYLAMIDE]	< 10 µM	> 2 µM	<20	–	–	–	–	–	–
Cc1ccc(NC(=O)[C@H](CCCCN)NC(=O)CNc2ccc(Oc3ccccc3)cc2)cc1 [Compound 368, (S)-6-AMINO-2-[2-(4-PHENOXY-PHENYLAMINO)-ACETYLAMINO]-HEXANOIC ACID P-TOLYLAMIDE]	< 10 µM	0.5 to 2 µM	<20	–	–	–	–	–	–
Cc1ccc(NC(=O)[C@@H](CCCCN)NC(=O)Nc2ccc(OCc3ccccc3)cc2)cc1 [Compound 172, (R)-6-AMINO-2-[3-(4-BENZYLOXY-PHENYL)-UREIDO]-HEXANOIC ACID P-TOLYLAMIDE]	10 to 50 µM	0.5 to 2 µM	<20	< 0.5 µM	20 to 100	–	–	–	–
CC1CCC(NC(=O)[C@H](CNC(=O)CN)NC(=O)Nc2ccc(OCc3ccccc3)cc2)CC1 (stereo partly drawn) [Compound 306, (S)-3-(2-AMINO-ACETYLAMINO)-2-[3-(4-BENZYLOXY-PHENYL)-UREIDO]-N-(4-METHYL-CYCLOHEXYL)-PROPIONAMIDE]	10 to 50 µM	> 2 µM	<20	–	–	–	–	–	–
COC(=O)c1ccc(COc2ccc(NC(=O)NC(CCCCN)C(=O)Nc3ccc(C)cc3)cc2)cc1 [Compound 199, (S)-4-{4-13-(5-AMINO-1-P-TOLYLCARBAMOYL-PENTYL)-UREIDO]-PHENOXYMETHYL}-BENZOIC ACID METHYL ESTER]	10 to 50 µM	0.5 to 2 µM	20 to 100	–	–	–	–	–	–
Cc1ccc(NC(=O)[C@H](CCCCN)NC(=O)CNc2cccc(Oc3ccccc3)c2)cc1 [Compound 367, (S)-6-AMINO-2-[2-(3-PHENOXY-PHENYLAMINO)-ACETYLAMINO]-HEXANOIC ACID P-TOLYLAMIDE]	< 10 µM	> 2 µM	<20	–	–	–	–	–	–
NCCCC[C@@H](NC(=O)Nc1ccc(-c2ccccc2)cc1)C(=O)Nc1ccc(C2CCCCC2)cc1 [Compound 142, (R)-6-AMINO-2-(3-BIPHENYL-4-YL-UREIDO)-HEXANOIC ACID (4-CYCLOHEXYL-PHENYL)-AMIDE]	< 10 µM	< 0.5 µM	<20	–	–	–	–	–	–
NCCCC[C@H](NC(=O)Nc1ccc(OCc2ccccc2)cc1)C(=O)Nc1ccc(C2CCCCC2)cc1 [Compound 117, (S)-6-AMINO-2-[3-(4-BENZYLOXY-PHENYL)-UREIDO]-HEXANOIC ACID (4-CYCLOHEXYL-PHENYL)-AMIDE]	< 10 µM	> 2 µM	<20	–	–	–	–	–	–
Cc1ccc(NC(=O)C(CCCCN)NC(=O)Nc2cccc(-c3ccccc3)c2)cc1 [Compound 127, (S)-6-AMINO-2-(3-BIPHENYL-3-YL-UREIDO)-HEXANOIC ACID P-TOLYLAMIDE]	10 to 50 µM	> 2 µM	<20	–	–	–	–	–	–
Cc1ccc(NC(=O)[C@H](CCCCN)NC(=O)Nc2ccc3c(c2)Cc2ccccc2-3)cc1 [Compound 125, (S)-6-AMINO-2-[3-(9H-FLUOREN-2-YL)-UREIDO]-HEXANOIC ACID P-TOLYLAMIDE]	< 10 µM	–	<20	–	–	–	> 2 µM	–	–
Cc1ccc(NC(=O)C(CNC(=O)CN)NC(=O)Nc2ccc(OCc3ccccc3)cc2)cc1 [Compound 268, (S)-3-(2-AMINO-ACETYLAMINO)-2-[3-(4-BENZYLOXY-PHENYL)-UREIDO]-N-P-TOLYL-PROPIONAMIDE]	10 to 50 µM	> 2 µM	<20	–	–	–	–	–	–
Cc1ccc(NC(=O)[C@H](CCCCN)NCc2ccc(NC(=O)Nc3ccncc3)cc2)cc1 [Compound 262, (S)-6-AMINO-2-[4-(3-PYRIDIN-4-YL-UREIDO)-BENZYLAMINO]-HEXANOIC ACID P-TOLYLAMIDE]	< 10 µM	–	–	–	–	2 to 0.5 μM	–	< 0.5 µM	–
NCCCC[C@@H](NC(=O)Nc1ccc2c(c1)Cc1ccccc1-2)C(=O)Nc1ccc(C2CCCCC2)cc1 [Compound 137, (R)-6-AMINO-2-[3-(9H-FLUOREN-2-YL)-UREIDO]-HEXANOIC ACID (4-CYCLOHEXYL-PHENYL)-AMIDE]	< 10 µM	< 0.5 µM	20 to 100	–	–	–	–	–	–
O=C(CC1CNCCN1C(=O)Nc1ccc(OCc2ccccc2)cc1)Nc1ccc(C2CCCCC2)cc1 (stereo not drawn) [Compound 163, 2-[(4-CYCLOHEXYL-PHENYLCARBAMOYL)-METHYL]-PIPERAZINE-1-CARBOXYLIC ACID (4-BENZYLOXY-PHENYL)-AMIDE]	10 to 50 µM	< 0.5 µM	<20	–	–	–	–	–	–
CC1CCC(NC(=O)[C@H](CCCCN)NC(=O)Nc2ccc(OCc3ccccc3)cc2)CC1 (stereo partly drawn) [Compound 264, (S)-6-AMINO-2-[3-(4-BENZYLOXY-PHENYL)-UREIDO]-HEXANOIC ACID (4-METHYL-CYCLOHEXYL)-AMIDE]	10 to 50 µM	< 0.5 µM	>100	–	–	–	–	–	–
Cc1ccc(NC(=O)[C@H](CCCCN)NC(=O)Nc2ccc(OCc3ccccc3)cc2)cc1 [Compound 2, (S)-6-AMINO-2-[3-(4-BENZYLOXY-PHENYL)-UREIDO]-HEXANOIC ACID P-TOLYLAMIDE]	10 to 50 µM	< 0.5 µM	>100	< 0.5 µM	20 to 100	–	–	–	–
Cc1ccc(NC(=O)C(CCCCN)NC(=O)Nc2ccc(-c3nc4ccccc4o3)cc2)cc1 [Compound 270, (S)-6-AMINO-2-[3-(4-BENZOOXAZOL-2-YL-PHENYL)-UREIDO]-HEXANOIC ACID P-TOLYLAMIDE]	10 to 50 µM	> 2 µM	<20	–	–	–	–	–	–
NCCCC[C@@H](NC(=O)Nc1ccc(OCc2ccccc2)cc1)C(=O)Nc1ccc(C2CCCCC2)cc1 [Compound 166, (R)-6-AMINO-2-[3-(4-BENZYLOXY-PHENYL)-UREIDO]-HEXANOIC ACID (4-CYCLOHEXYL-PHENYL)-AMIDE]	< 10 µM	> 2 µM	<20	–	–	–	–	–	–
NCCCCC[C@H](NC(=O)NCc1ccccc1)C(=O)Nc1ccc(C2CCCCC2)cc1 [Compound 120, (S)-7-AMINO-2-(3-BENZYL-UREIDO)-HEPTANOIC ACID (4-CYCLOHEXYL-PHENYL)-AMIDE]	< 10 µM	> 2 µM	<20	–	–	–	–	–	–
NCCCC[C@H](NC(=O)OCC1c2ccccc2-c2ccccc21)C(=O)Nc1ccc(CN)cc1 [Compound 228, (S)-[5-AMINO-1-(4-AMINOMETHYL-PHENYLCARBAMOYL)-PENTYL]-CARBAMIC ACID 9H-FLUOREN-9-YLMETHYL ESTER]	< 10 µM	–	20 to 100	–	–	–	–	–	0.5 µM
NCCCCC[C@H](NC(=O)Nc1ccc(OCc2ccccc2)cc1)C(=O)Nc1ccc(C2CCCCC2)cc1 [Compound 121, (S)-7-AMINO-2-[3-(4-BENZYLOXY-PHENYL)-UREIDO]-HEPTANOIC ACID (4-CYCLOHEXYL-PHENYL)-AMIDE]	< 10 µM	< 0.5 µM	<20	–	–	–	–	–	–
